This is an account of results in publication PMC9403987 (Frontiers in Oncology, 2022).

For orientation: IC50 means the concentration at which inhibition is half-maximal.

One series relates to BRL-3a. The series can be described thus: Cell proliferation assay. Format: cell-based, Rattus norvegicus. Conditions: liver, normal, 72 hours. On the procedure:
(§1) To quantify cell proliferation, either the nuclei of live cells were counted following staining with 4’,6-diamidino-2-phenylindole (DAPI; Sigma-Aldrich, Burlington, MA, USA), or metabolically active cells were detected using a CellTiter-Glo assay (Promega Corporation, Madison, WI, USA). Cells from a range of human and mammalian tumor cell lines (American Type Culture Collection, Manassas, VA, USA) were seeded at 4000 cells per well in 100 μL of culture medium in a 96-well plate and incubated overnight at 37°C with 5% CO2. […] In the DAPI staining method, cells were washed using 1× phosphate-buffered saline (PBS; Gibco Thermo Fisher Scientific, Waltham, MA, USA), fixed with 4% formaldehyde, permeabilized with 0.2% Triton X-100 (Sigma-Aldrich), washed again, and stained with 1 μg/mL DAPI to visualize cell nuclei. Cells were washed with 1× PBS three times, and 100 μL 1× PBS was added to each well. Plates were scanned using an IN Cell Analyzer 2200 (GE Healthcare Life Sciences, Chicago, IL, USA) and the number of cells per well was recorded. In the CellTiter-Glo assay, 60 μL of CellTiter-Glo luminescent solution was added to each well after incubation with the test compounds, and the assay plate was scanned using a Tecan Infinite M1000 PRO microplate reader (Tecan Group AG, Männedorf, Switzerland) to record luminescent signals.

Another series concerns U87-luc tumor cells. The series can be described thus: Orthotopic U87-luc glioblastoma xenograft. Conditions: for TGI (%) / Increase in median survival time (%): 42 days; for TGI (%): measured day 21, bioluminescence; for Increase in median survival time (%): versus vehicle group. Format: in vivo, BALB/c nude mice. On the procedure:
(§2) The efficacy of GLR2007 was evaluated in human GBM and breast cancer orthotopic cell-line-derived xenografts in NOD/SCID mice (Shanghai Lingchang Biotechnology Co. Ltd, Shanghai, China) and BALB/c nude mice (Shanghai Sino-British SIPPR/BK Laboratory Animal Co. Ltd, Shanghai, China), and human lung, colorectal, and liver cancer subcutaneous cell-line-derived xenografts in BALB/c nude mice (Nanjing University National Resource Center, Nanjing, China, or Beijing Anikeeper Biotech Co., Beijing, China). Mice were maintained in humidity- and temperature-controlled conditions with food and water available ad libitum.
In a GBM orthotopic xenograft study, female BALB/c nude mice were inoculated intracranially at 6–8 weeks old with 3×10^5 U87-luc tumor cells plus Matrigel (Corning Life Sciences, Tewksbury, MA, USA) in a 4:1 ratio in PBS at the right frontal lobe. Tumor growth was quantified using intraperitoneal administration of 150 mg/kg luciferin to anesthetized mice, and tumor bioluminescence was measured using an IVIS Lumina II imaging system (PerkinElmer Inc.). In one study, mice were randomized at day 6 after tumor implantation (mean bioluminescence of 2.81×10^7 photons/sec), and in the other, mice were randomized at day 14 or day 15 (mean bioluminescence of 7.49×10^6 photons/sec).
Statistical analysis of differences in mean tumor volume among groups was conducted via an independent samples t-test or one-way analysis of variance (ANOVA; two-sided Dunnett’s test). For comparison among three or more groups, a one-way ANOVA was performed. Multiple comparison procedures were applied after ANOVA when significant F-statistics (ratio of treatment variance to error variance) were obtained. Comparisons between groups were carried out using the Games test. P<0.05 was considered to be statistically significant. Survival times were analyzed using the Kaplan–Meier method, with curves constructed for each group and the log-rank (Mantel–Cox) test used to compare survival curves between groups. Body weight change was calculated based on the weight on the first day of dosing.

For another series, the system named is MCF-7 tumor cells. As to the kind of experiment: Orthotopic MCF-7 breast cancer xenograft. Format: in vivo, NOD/SCID mice. On the procedure:
as §2
In two breast cancer orthotopic xenograft models, female NOD/SCID mice were subcutaneously implanted with an estrogen pellet (17β-estradiol; Innovative Research of America, Sarasota, FL, USA) one day before tumor inoculation. Mice were inoculated at 6–7 weeks old with 2×10^7 MCF-7 tumor cells plus Matrigel in a 1:1 ratio in PBS at a mammary fat pad or in the right flank. Randomization was performed when the mean tumor volume reached 135–138 mm^3.

The next series has as its system LI1088. The series can be described thus: Subcutaneous LI1088 liver cancer xenograft. It is filed as in vivo, BALB/c nude mice. Conditions: 25 mg/kg daily oral, 28 days, measured day 25. As for the experimental part:
as §2, with “libitum. For subcutaneous models, female BALB/c nude mice were inoculated at 4–8 weeks old with 3×10^6–1×10^7 tumor cells (see Table 1 for xenograft model cell types) in the right flank for tumor development. Randomization was performed when the mean tumor volume reached 118–171 mm^3.” for “libitum.”

The next series relates to COLO 205. As to the kind of experiment: Subcutaneous COLO 205 colorectal cancer xenograft. Format: in vivo, BALB/c nude mice. Conditions: 26 days, measured day 25. As for the experimental part: as §2, with “libitum. For subcutaneous models, female BALB/c nude mice were inoculated at 4–8 weeks old with 3×10^6–1×10^7 tumor cells (see Table 1 for xenograft model cell types) in the right flank for tumor development. Randomization was performed when the mean tumor volume reached 118–171 mm^3.” for “libitum.”

The test system of a further series is H22. The series can be described thus: Cell proliferation assay. Format: cell-based, Mus musculus. Conditions: H22, liver, hepatocellular carcinoma, 72 hours. On the procedure:
as §1

Another series has as its system Colon-26. As to the kind of experiment: Cell proliferation assay. The conditions noted are these: Colon-26, colorectal carcinoma, 72 hours. Format: cell-based, Mus musculus. On the procedure: as §1
The next series has as its system Hepa1-6. The series can be described thus: Cell proliferation assay. It is filed as cell-based, Mus musculus. The conditions noted are these: Hepa1-6, liver, hepatocellular carcinoma, 72 hours. As for the experimental part:
as §1

Another series relates to Glioma 261. The series can be described thus: Cell proliferation assay. Conditions: Glioma 261, brain, murine glioma, 72 hours. It is filed as cell-based, Mus musculus. On the procedure:
as §1

Another series relates to BNL CL.2. The series can be described thus: Cell proliferation assay. Format: cell-based, Mus musculus. Conditions: BNL CL.2, liver, normal, 72 hours. On the procedure:
as §1

The subject of another series is 4T1. As to the kind of experiment: Cell proliferation assay. Format: cell-based, Mus musculus. Conditions: 4T1, breast carcinoma, 72 hours. On the procedure: as §1
The next series deals with MDA-MB-231. As to the kind of experiment: Cell proliferation assay. The conditions noted are these: MDA-MB-231, breast carcinoma, 72 hours. Format: cell-based, Homo sapiens. As for the experimental part:
as §1

A further series has as its system BN2289. The series can be described thus: Subcutaneous BN2289 glioblastoma xenograft. Format: in vivo, BALB/c nude mice. Conditions: 28 days, measured day 21. As for the experimental part: as §2, with “libitum. For subcutaneous models, female BALB/c nude mice were inoculated at 4–8 weeks old with 3×10^6–1×10^7 tumor cells (see Table 1 for xenograft model cell types) in the right flank for tumor development. Randomization was performed when the mean tumor volume reached 118–171 mm^3.” for “libitum.”

For a further series, the system named is NCI-H1975. The series can be described thus: Subcutaneous NCI-H1975 non-small cell lung cancer xenograft. Conditions: 22 days, measured day 16. Format: in vivo, BALB/c nude mice. As for the experimental part:
as §2, with “libitum. For subcutaneous models, female BALB/c nude mice were inoculated at 4–8 weeks old with 3×10^6–1×10^7 tumor cells (see Table 1 for xenograft model cell types) in the right flank for tumor development. Randomization was performed when the mean tumor volume reached 118–171 mm^3.” for “libitum.”

Setting [1] is: 25 mg/kg daily oral, 21 days, measured day 21, 8 mice.
[2] abbreviates: 25 mg/kg daily oral, 28 days, measured day 25, 10 mice.

`CCN1CCN(Cc2ccc(Nc3ncc(F)c(-c4cc(F)c5nc(C)n(C(C)C)c5c4)n3)nc2)CC1` [Abemaciclib, abemaciclib, reference compound]: the IC50 with BRL-3a (Rattus norvegicus) was 10 µM; with H22 (Mus musculus), 3.58 µM; in the series on Colon-26 (Mus musculus), > 10 µM; in the series on Hepa1-6 (Mus musculus) it was 1.27 µM; with Glioma 261 (Mus musculus), 2.52 µM; in the series on BNL CL.2 (Mus musculus) it was 10 µM. Moreover, the IC50 was found to be 4.79 µM in the series on 4T1 (Mus musculus) and 0.048 µM in the series with MDA-MB-231 (Homo sapiens). For the same compound, the “TGI (%)” value with U87-luc tumor cells (150 mg/kg daily oral) was found to be 79.0%; with MCF-7 tumor cells (setting [1]), 33.0%; in the series with MCF-7 tumor cells (setting [2]), 48.6%; in the series on LI1088, 22.4%; with COLO 205 (25 mg/kg daily oral), 57.7%; with BN2289 (25 mg/kg daily oral), 24.9%. Besides, in the series on NCI-H1975 (25 mg/kg daily oral), the “TGI (%)” value is 6.9%. In addition, in the series with U87-luc tumor cells (150 mg/kg daily oral), the “Increase in median survival time (%)” value amounted to 54.4%.

As to `CC1=Nc2c(F)cc(-c3nc(Nc4ccc(C5CCN(C)CC5)cn4)ncc3F)cc2C12CCCC2` [GLR2007], the IC50 in the series on BRL-3a worked out at 1.87 µM; in the series on H22, 1.84 µM; with Colon-26, 2.12 µM; in the series on Hepa1-6 it was 0.526 µM; in the series on Glioma 261, 1.97 µM; in the series on BNL CL.2 it was 1.94 µM. Besides, the IC50 with 4T1 came out at 1.94 µM; with MDA-MB-231, 0.044 µM. Moreover, the “TGI (%)” value with U87-luc tumor cells (12.5 mg/kg daily oral) is recorded as 86.3%; with MCF-7 tumor cells (10 mg/kg daily oral, 21 days, measured day 21, 8 mice) it was 43.5%; in the series with MCF-7 tumor cells (setting [1]), 37.4%; in the series on MCF-7 tumor cells (setting [2]), 61.4%; in the series with MCF-7 tumor cells (50 mg/kg daily oral, 21 days, measured day 21, 8 mice) it was 49.6%; in the series with LI1088 it was 57.7%. Further, the “TGI (%)” value in the series on COLO 205 (5 mg/kg daily oral) was 42.6%; with COLO 205 (25 mg/kg daily oral), 72.2%; with BN2289 (5 mg/kg daily oral), 4.9%; in the series on BN2289 (25 mg/kg daily oral), 39.4%; with BN2289 (50 mg/kg daily oral) it was 56.4%; in the series on NCI-H1975 (10 mg/kg daily oral), 27.6%. For the same compound, the “TGI (%)” value in the series with NCI-H1975 (25 mg/kg daily oral) came to 50.0%. In addition, in the series on U87-luc tumor cells (12.5 mg/kg daily oral), the “Increase in median survival time (%)” value came out at 50.0%. The “Weight loss, GLR2007 versus abemaciclib groups” value in the series on U87-luc tumor cells (orthotopic U87-luc xenograft mice treated for 42 days) was “comparable”.
